In general, IC50 refers to the concentration at which inhibition is half-maximal.

For the test, the target named is T1, human LPA1 (Homo sapiens, UniProt Q92633).
T1 construct: expressed in transfected cells; host or cells: Chinese hamster ovary (CHO) cells
T1 sequence (Q92633 whole entry): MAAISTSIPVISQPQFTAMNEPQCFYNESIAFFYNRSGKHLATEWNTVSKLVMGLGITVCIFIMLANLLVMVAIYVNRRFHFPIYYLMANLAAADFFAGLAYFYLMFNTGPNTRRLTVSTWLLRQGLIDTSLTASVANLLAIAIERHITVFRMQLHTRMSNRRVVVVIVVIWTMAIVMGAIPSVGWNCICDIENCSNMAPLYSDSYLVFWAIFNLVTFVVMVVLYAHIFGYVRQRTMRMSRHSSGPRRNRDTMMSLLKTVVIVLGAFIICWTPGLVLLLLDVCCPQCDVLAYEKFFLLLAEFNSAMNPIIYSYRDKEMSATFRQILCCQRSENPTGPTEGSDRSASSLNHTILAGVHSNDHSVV
In words: LPA1 functional antagonist assay (LPA-induced calcium flux in CHO cells overexpressing human LPA1). It is filed as cell-based. The following applies: inhibition of calcium flux induced by 10 nM LPA, CHO cells overexpressing human LPA1; read-out: hLPA1 IC50. In a few lines: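 CHO cells overexpressing human LPA1, dye-loaded 30 min at 37 °C, then given compound (0.08 nM–5 μM final, 0.5% DMSO) in HBSS/20 mM HEPES/0.1% fatty-acid-free BSA for 20 min at room temperature before 10 nM LPA. IC50 as 50% inhibition of LPA-evoked calcium flux, 4-parameter logistic fit.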
For orientation: Calcium assays in cells follow changes in intracellular calcium, usually with a dye or a luminescent sensor.
On to `Cc1nc(-c2nnn(C)c2Cn2nnc(CC(C)C)n2)ccc1O[C@H]1CCC[C@H](C(=O)O)C1` [Example 327, (1S,3S)-3-((6-(5-((5-isobutyl-2H-tetrazol-2-yl)methyl)-1-methyl-1H-1,2,3-triazol-4-yl)-2-methylpyridin-3-yl)oxy)cyclohexane-1-carboxylic acid], for which the IC50 came out at 28 nM. Under `Cc1nc(-c2nnn(C)c2Cn2nnnc2CC(C)C)ccc1O[C@H]1CCC[C@H](C(=O)O)C1` [Example 328, (1S,3S)-3-((6-(5-((5-isobutyl-1H-tetrazol-1-yl)methyl)-1-methyl-1H-1,2,3-triazol-4-yl)-2-methylpyridin-3-yl)oxy)cyclohexane-1-carboxylic acid] stands 118 nM; under `Cc1nc(-c2nnn(C)c2Cn2nnc(C3CCCC3)n2)ccc1O[C@H]1CCC[C@H](C(=O)O)C1` [Example 329, (1S,3S)-3-((6-(5-((5-cyclopentyl-2H-tetrazol-2-yl)methyl)-1-methyl-1H-1,2,3-triazol-4-yl)-2-methylpyridin-3-yl)oxy)cyclo-hexane-1-carboxylic acid], 14 nM.

For the molecule `Cc1nc(-c2nnn(C)c2Cn2nnnc2C2CCCC2)ccc1O[C@H]1CCC[C@H](C(=O)O)C1` [Example 330, (1S,3S)-3-((6-(5-((5-cyclopentyl-1H-tetrazol-1-yl)methyl)-1-methyl-1H-1,2,3-triazol-4-yl)-2-methylpyridin-3-yl)oxy)cyclo-hexane-1-carboxylic acid], the half-maximal inhibitory concentration (IC50) came out at 385 nM. Under `Cc1nc(-c2nnn(C)c2Cn2nnc(CC3CCCC3)n2)ccc1O[C@H]1CCC[C@H](C(=O)O)C1` [Example 331, (1S,3S)-3-((6-(5-((5-(cyclopentyl-methyl)-2H-tetrazol-2-yl)methyl)-1-methyl-1H-1,2,3-triazol-4-yl)-2-methylpyridin-3-yl)oxy)cyclohexane-1-carboxylic acid] stands 7 nM; under `Cc1nc(-c2nnn(C)c2Cn2nnc(OCC3CCC3)n2)ccc1O[C@H]1CCC[C@H](C(=O)O)C1` [Example 332, (1S,3S)-3-{[6-(5-{[5-(cyclobutyl-methoxy)-2H-1,2,3,4-tetrazol-2-yl]methyl}-1-methyl-1H-1,2,3-triazol-4-yl)-2-methylpyridin-3-yl]oxy}cyclohexane-1-carboxylic acid], 30 nM; under `Cc1nc(-c2nnn(C)c2Cn2nnc(OC3CCC3)n2)ccc1O[C@H]1CCC[C@H](C(=O)O)C1` [Example 333, (1S,3S)-3-[(6-{5-[(5-cyclobutoxy-2H-1,2,3,4-tetrazol-2-yl)methyl]-1-methyl-1H-1,2,3-triazol-4-yl}-2-methylpyridin-3-yl)oxy]cyclo-hexane-1-carboxylic acid], 48 nM. The result for `Cc1nc(-c2nnn(C)c2Cn2nnc(OCC3CC(F)(F)C3)n2)ccc1O[C@H]1CCC[C@@H](C(=O)O)C1` [Example 334, (1R,3S)-3-({6-[5-({5-[(3,3-difluoro-cyclobutyl)methoxy]-2H-1,2,3,4-tetrazol-2-yl}methyl)-1-methyl-1H-1,2,3-triazol-4-yl]-2-methylpyridin-3-yl}oxy)cyclohexane-1-carboxylic acid] reads 258 nM; that for `Cc1nc(-c2nnn(C)c2Cn2nnc(OC3CCC3)n2)ccc1O[C@H]1CCC[C@@H](C(=O)O)C1` [Example 335, (1R,3S)-3-[(6-{5-[(5-cyclobutoxy-2H-1,2,3,4-tetrazol-2-yl)methyl]-1-methyl-1H-1,2,3-triazol-4-yl}-2-methylpyridin-3-yl)oxy]cyclo-hexane-1-carboxylic acid], 405 nM. The result for `Cc1nc(-c2nnn(C)c2Cn2nnc(OC3CCCC3)n2)ccc1O[C@H]1CCC[C@H](C(=O)O)C1` [Example 336, (1S,3S)-3-{[6-(5-{[5-(cyclopentyl-oxy)-2H-1,2,3,4-tetrazol-2-yl]methyl}-1-methyl-1H-1,2,3-triazol-4-yl)-2-methylpyridin-3-yl]oxy}cyclohexane-1-carboxylic acid] reads 67 nM.

Source of the values: patent US11319315B2, “Cyclohexyl acid triazole azoles as LPA antagonists” (BRISTOL-MYERS SQUIBB COMPANY, priority 2017, dated 2022).
